Reference: US12527774B2, “Estrogen-related receptor alpha modulators” (LEAD PHARMA HOLDING B.V., priority 2019, dated 2026)

These compounds were tested against ERRα ligand binding domain (ERRα-LBD) (Homo sapiens (Human), UniProt P11474) (assay: ERRα AlphaScreen Assay). Details: disruption of binding of ERRα-LBD protein to biotin-PGC1α-3 co-activator peptide; read-out: mean pIC50 (converted).
Assay type: biochemical
Source text: This assay was based on the knowledge that nuclear receptors interact with cofactors in a ligand dependent matter. The sites of interaction have been mapped to LXXLL motifs that are present in the co-activator sequences. Short peptide sequences that contain the LXXLL motif mimic the behavior of full length co-activators.
The ERRα AlphaScreen Assay described here relies on the interaction of the co-activator peptide with purified bacterial-expressed ERRα ligand binding domain (ERRα-LBD); upon ligand binding the ERRα protein can undergo a conformational change resulting in a loss of co-activator binding.
Compounds of the present invention were tested for their ability to disrupt binding of ERRα-LBD protein to co-activator peptide using AlphaScreen® Technology (Perkin Elmer). ERRα-LBD protein was expressed in E. coli as a 6×His Small Ubiquitin-like Modifier (SUMO) fusion. Bacterial expressed 6His-SUMO-ERRα-LBD protein was purified using affinity chromatography. All experiments were performed at room temperature in 384-well white non-binding plates (Greiner) using 50 mM Tris-HCl pH 7.5, 100 mM NaCl, 0,1% Pluronic F-127, 0.05% BSA and 5 mM TCEP as the buffer. Final DMSO concentration was 1% in the assay. Compounds were assayed in triplicate and: incubated with 0.81 nM ERRα-LBD protein and 10 μg/mL streptavidin donor beads and 10 μg/mL Ni-chelate acceptor beads for 1 hour at room temperature; followed by a 2-hour incubation with 15 nM biotin-PGC1α-3 peptide (QRRPCSELLKYLTTNDDPP) corresponding to amino acids 202 to 220.
The AlphaScreen signal was measured using an Envision Xcite plate reader (Perkin Elmer). Data was normalized, and curve fitting analysis was performed in GraphPad Prism 7 using a four-parameter dose-response fit.
As multiple IC50 values were annotated for the same compound-protein pair, a mean pIC50 for each compound was determined.

Sequence of ERRα ligand binding domain (ERRα-LBD) (P11474 193-421): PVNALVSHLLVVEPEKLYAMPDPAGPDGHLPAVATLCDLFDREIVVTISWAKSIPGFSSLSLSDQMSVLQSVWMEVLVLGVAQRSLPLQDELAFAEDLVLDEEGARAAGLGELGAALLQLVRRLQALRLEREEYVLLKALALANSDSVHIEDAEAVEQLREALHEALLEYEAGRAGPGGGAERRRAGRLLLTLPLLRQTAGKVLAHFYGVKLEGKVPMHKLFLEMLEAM

IC50	Structure (SMILES)
0.1 to 1 µM	COc1cc(C2CC(=O)Nc3n[nH]cc32)ccc1OCc1ccc(C(=O)O)cc1C(F)(F)F (centres unmarked) [Example 120, 4-(2-methoxy-4-{6-oxo-2H,4H,5H,6H, 7H-pyrazolo[3,4-b]pyridin-4-yl}phenoxymethyl)-3-(trifluoromethyl)benzoic acid]
0.1 to 1 µM	COc1cc(C2CC(=O)Nc3n[nH]cc32)ccc1OCc1cc(Cl)ccc1Cl (centres unmarked) [Example 29, 4-{4-[(2,5-dichlorophenyl)methoxy]-3-methoxyphenyl}-2H,4H,5H,6H, 7H-pyrazolo[3,4-b]pyridin-6-one]
0.01 to 0.1 µM	Cc1cc(C2CC(=O)Nc3n[nH]cc32)ccc1OCc1ccccc1C(F)(F)F (centres unmarked) [Example 73, 4-(3-methyl-4-{[2-(trifluoromethyl)phenyl]methoxy}phenyl)-2H,4H,5H,6H,7H-pyrazolo[3,4-b]pyridin-6-one]
0.01 to 0.1 µM	COc1cc(C2CC(=O)Nc3n[nH]cc32)ccc1OCc1ccc(C#N)cc1C(F)(F)F (centres unmarked) [Example 105, 4-[(2-methoxy-4-{6-oxo-2H,4H,55H, 6H, 7H-pyrazolo[3,4-b]pyridin-4-yl}phenyl)methoxy]-3-(trifluoromethyl)benzonitrile]
0.01 to 0.1 µM	COC(=O)c1ccccc1COc1ccc(C2CC(=O)Nc3n[nH]cc32)cc1OC (centres unmarked) [Example 26, methyl 2-(2-methoxy-4-{6-oxo-2H,4H,5H,6H,7H-pyrazolo[3,4-b]pyridin-4-yl}phenoxymethyl)benzoate]
0.01 to 0.1 µM	COc1cc(OCc2ccccc2C(F)(F)F)ccc1C1CC(=O)Nc2n[nH]cc21 (centres unmarked) [Example 64, 4-(2-methoxy-4-{[2-(trifluoromethyl)phenyl]methoxy}phenyl)-2H,4H,5H,6H,7H-pyrazolo[3,4-b]pyridin-6-one]
0.01 to 0.1 µM	COCCOc1cc(C2CC(=O)Nc3n[nH]cc32)ccc1OCc1ccccc1C(F)(F)F (centres unmarked) [Example 164, 4-[3-(2-methoxyethoxy)-4-{[2-(trifluoromethyl)phenyl]methoxy}phenyl]-2H,4H,5H,6H, 7H-pyrazolo[3,4-b]pyridin-6-one]

Further lines, the compound ahead of its results:

Structure (SMILES)	IC50
COc1cc(C2CC(=O)Nc3n[nH]cc32)ccc1COc1ccc(C)cc1C (centres unmarked) [Example 111, 4-{4-[(2,4-dimethylphenoxy)methyl]-3-methoxyphenyl}-2H,4H,5H,6H,7H-pyrazolo[3,4-b]pyridin-6-one]	0.01 to 0.1 µM
NC(=O)c1cc(C2CC(=O)Nc3n[nH]cc32)ccc1OCc1ccccc1C(F)(F)F (centres unmarked) [Example 130, 5-{6-oxo-2H,4H,5H,6H, 7H-pyrazolo[3,4-b]pyridin-4-yl}-2-{[2-(trifluoromethyl)phenyl]methoxy}benzamide]	0.1 to 1 µM
COc1cc(-c2cc(=O)[nH]c3n[nH]cc23)ccc1OCc1ccncc1C(F)(F)F [Example 172, 4-(3-methoxy-4-{[3-(trifluoromethyl)pyridin-4-yl]methoxy}phenyl)-2H,6H, 7H-pyrazolo[3,4-b]pyridin-6-one]	0.1 to 1 µM
O=C1CC(c2ccc(OCc3ccccc3C(F)(F)F)c(C(F)(F)F)c2)c2c[nH]nc2N1 (centres unmarked) [Example 76, 4-[3-(trifluoromethyl)-4-{[2-(trifluoromethyl)phenyl]methoxy}phenyl]-2H,4H,5H,6H, 7H-pyrazolo[3,4-b]pyridin-6-one]	0.1 to 1 µM
COc1cc(C2CC(=O)Nc3n[nH]cc32)ccc1OCc1cccc(Br)c1 (centres unmarked) [Example 11, 4-{4-[(3-bromophenyl)methoxy]-3-methoxyphenyl}-2H,4H,5H,6H, 7H-pyrazolo[3,4-b]pyridin-6-one]	0.1 to 1 µM
COc1ccc([N+](=O)[O-])cc1COc1ccc(-c2cc(=O)[nH]c3n[nH]cc23)cc1OC [Example 182, 4-{3-methoxy-4-[(2-methoxy-5-nitrophenyl)methoxy]phenyl}-2H,6H,7H-pyrazolo[3,4-b]pyridin-6-one]	0.01 to 0.1 µM
O=C1CC(c2ccc(OCc3ccccc3C(F)(F)F)c(Br)c2)c2c[nH]nc2N1 (centres unmarked) [Example 70, 4-(3-bromo-4-{[2-(trifluoromethyl)phenyl]methoxy}phenyl)-2H,4H,5H,6H, 7H-pyrazolo[3,4-b]pyridin-6-one]	0.01 to 0.1 µM
